Measurements: patent US20160052936A1, “SPIROINDOLINE DERIVATIVES FOR USE AS GONADOTROPIN-RELEASING HORMONE RECEPTOR ANTAGONISTS” (BAYER PHARMA AKTIENGESELLSCHAFT, priority 2013, published 2016)
pIC50: −log10 of the molar value.

Assays:
human GnRH receptor = biological target: T1, human GnRH receptor (Homo sapiens, UniProt P30968); test: IP-One HTRF assay with buserelin stimulation; format: cell-based; conditions: CHO cells stably expressing human GnRH receptor; buserelin at EC80; read-out: Potency in IP-One HTRF assay with buserelin (at EC80) stimulation, given as IC50
T1 construct: host or cells: CHO cells stably expressing human GnRH receptor (line established by Prof. Thomas Gudermann)
T1 sequence (P30968 1-328): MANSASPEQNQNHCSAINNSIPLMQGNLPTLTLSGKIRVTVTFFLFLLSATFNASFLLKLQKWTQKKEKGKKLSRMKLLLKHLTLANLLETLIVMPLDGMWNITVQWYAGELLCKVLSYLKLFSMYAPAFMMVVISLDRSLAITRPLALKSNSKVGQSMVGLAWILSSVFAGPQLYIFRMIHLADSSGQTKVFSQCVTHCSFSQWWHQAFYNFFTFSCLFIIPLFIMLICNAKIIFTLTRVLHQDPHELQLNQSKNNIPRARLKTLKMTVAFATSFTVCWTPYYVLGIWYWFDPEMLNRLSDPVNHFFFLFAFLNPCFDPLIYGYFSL
In short: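 CHO cells stably expressing human GnRH receptor, preincubated 1 h with IP1-d2 at 37 °C, treated with compound and EC80 buserelin (LiCl present) for 1 h at 37 °C; IP1 measured by HTRF (665/620 nm ratio) after lysis 1 h at 22 °C. Ten concentrations, 20 μM–1 nM, duplicate; IC50 by 4-parameter fit.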

[1] = In vivo pharmacokinetics in rats; conditions: Wistar, rat, plasma, po, male rats, 2 mg/kg p.o.; for bioavailability: AUCnorm intragastral / AUCnorm i.v. (0.5 mg/kg), read-out: F (oral bioavailability)
Method: 2.4 In Vivo Pharmacokinetics in Rats
For in vivo pharmacokinetic experiments test compounds were administered to male Wistar rats intravenously at a dose of 0.5 mg/kg and intragastral at a dose of 2 mg/kg formulated as solutions using solubilizers such as PEG400 or Solutol in well-tolerated amounts.
For pharmacokinetics after intravenous administration test compounds were given as i.v. bolus and blood samples were taken at 2 min, 8 min, 15 min, 30 min, 45 min, 1 h, 2 h, 4 h, 7 h and 24 h after dosing. […] For pharmacokinetics after intragastral administration test compounds were given intragastral to fasted rats and blood samples were taken at 8 min, 15 min, 30 min, 45 min, 1 h, 2 h, 4 h, 7 h and 24 h after dosing. […] Blood was collected into Lithium-Heparintubes (Monovetten®, Sarstedt) and centrifuged for 15 min at 3000 rpm. An aliquot of 100 μL from the supernatant (plasma) was taken and precipitated by addition of 400 μL cold acetonitril and frozen at −20° C. over night. Samples were subsequently thawed and centrifuged at 3000 rpm, 4° C. for 20 minutes. Aliquots of the supernatants were taken for analytical testing using an Agilent 1200 HPLC-system with LCMS/MS detection. PK parameters were calculated by non-compartmental analysis using a PK calculation software.
PK parameters derived from concentration-time profiles after i.v.: CLplasma: Total plasma clearance of test compound (in L/kg/h); CLblood: Total blood clearance of test compound: CLplasma*Cp/Cb (in L/kg/h) with Cp/Cb being the ratio of concentrations in plasma and blood. PK parameters calculated from concentration time profiles after i.g.: Cmax: Maximal plasma concentration (in mg/L); Cmaxnorm: Cmax divided by the administered dose (in kg/L); Tmax: Time point at which Cmax was observed (in h). Parameters calculated from both, i.v. and i.g. concentration-time profiles: AUCnorm: Area under the concentration-time curve from t=0 h to infinity (extrapolated) divided by the administered dose (in kg*h/L); AUC(0−tlast)norm: Area under the concentration-time curve from t=0 h to the last time point for which plasma concentrations could be measured divided by the administered dose (in kg*h/L); t½: terminal half-life (in h); F: oral bioavailability: AUCnorm after intragastral administration divided by AUCnorm after intravenous administration (in %).

Compound | pIC50 (human GnRH receptor) | half-life [1] [h] | bioavailability [1] [%]
O=C(NCc1ncc(C(F)(F)F)cc1Cl)c1ccc2c(c1)C1(CCS(=O)(=O)CC1)[C@H](C1CC1)N2S(=O)(=O)c1ccc(F)cc1 [Example 3.1, (2S)—N-{[3-chloro-5-(trifluoromethyl)pyridin-2-yl]methyl}-2-cyclopropyl-1-[(4-fluorophenyl)sulfonyl]-1,2,2′,3′,5′,6′-hexahydrospiro[indole-3,4′-thiopyran]-5-carboxamide 1′,1′-dioxide] | 7.68 | 17 | 87
O=C(NCc1ncc(C(F)(F)F)cc1F)c1ccc2c(c1)C1(CCS(=O)(=O)CC1)[C@H](C1CC1)N2S(=O)(=O)c1ccc(F)cc1 (single isomer, unassigned) [Example 1.1] | 7.03 | 5.2 | 32
N#Cc1cccc(S(=O)(=O)N2c3ccc(C(=O)NCc4ncc(C(F)(F)F)cc4Cl)cc3C3(CCS(=O)(=O)CC3)[C@@H]2C2CC2)c1 (single isomer, unassigned) [Example 10.1] | 7.85 | 3.3 | 23
